Measurements from patent US20080269323A1, “USE OF 4-(NITROOXY)-BUTYL-(S)-2-(6-METHOXY-2-NAPHTHYL)-PROPANOATE FOR TREATING PAIN AND INFLAMMATION” (NICOX S.A., priority 2007, published 2008).

Columns and labels:
PGE2 = experiment: Urinary PGE2 production levels; assay type: in vivo, rat; conditions: rats, oral, two weeks; naproxcinod 14.5 mg/kg, naproxen 10 mg/kg
[1] = Urine flow rate during water-load; assay type: in vivo, rat; conditions: water-load (90 min) compared to baseline; rats, oral, two weeks
Method: After obtaining a set of baseline images, hypotonic glucose-saline (0.25% NaCl, 0.5% glucose) at 1.5 ml/100 g body weight/hr was infused intravenously via the femoral catheter for 2 hours to induce the water-diuresis.

Row | Compound | Urinary PGE2 production levels (in words) (PGE2) | Increase in urine flow during water-load (in words) [1]
1 | COc1ccc2cc([C@H](C)C(=O)OCCCCO[N+](=O)[O-])ccc2c1 [Naproxcinod, 4-(Nitrooxy)-butyl-(S)-2-(6-methoxy-2-naphthyl)-propanoate] | reduced | substantially less increase
2 | COc1ccc2cc([C@H](C)C(=O)O)ccc2c1 [Naproxen, naproxen] | reduced | substantially less increase
